Source: patent US4440943A, “Phenoxiodinin-5-ium antimicrobial compounds” (The Dow Chemical Company, priority 1982, dated 1984)
Where a name gives a salt, the structure may show the parent alone. Read-outs that look alike come from different tables or passages of the source.

Tests used:
Assay type in all cases: cell-based
Staphylococcus aureus = test: Agar dilution MIC vs Staphylococcus aureus (trypticase soy agar); details: first screened at 500 ppm; for MIC: read-out: Minimum inhibitory concentration, Sa
Protocol: (§1) A tube containing 30 ml of trypticase soy agar was melted and warmed to 45° C. The test compound was added to the tube at a concentration of 0.05% (500 ppm). The mixture was stirred and poured into plates to harden. When hardened, the plates were inoculated with various aerobic and anaerobic organisms. The aerobic plates were incubated at 37° C. for 24 hours and then read for bacterial growth. The same plates were again incubated at 30° C. for an additional 48 hours at which point they were checked for yeast and fungal growth. The anaerobic plates were incubated at 37° C. in an anaerobic chamber and read at 48 hours.
(§2) After the initial readings, compounds showing sufficient activity were re-tested at various concentrations to determine the minimum inhibitory concentration (MIC) of the compounds of the invention against various bacteria and fungi.

Salmonella typhosa = test: Agar dilution MIC vs Salmonella typhosa (trypticase soy agar); details: for Minimum inhibitory concentration, St: Salmonella typhosa, first screened at 500 ppm; for MIC: Salmonella enterica, TYPHOSA, read-out: Minimum inhibitory concentration, St, Salmonella typhosa, first screened at 500 ppm
Protocol: as §1, §2

Escherichia coli = test: Agar dilution MIC vs Escherichia coli (trypticase soy agar); details: first screened at 500 ppm; for MIC: read-out: Minimum inhibitory concentration, Ec
Protocol: as §1, §2

Proteus mirabilis = test: Agar dilution MIC vs Proteus mirabilis (trypticase soy agar); details: first screened at 500 ppm
Protocol: as §1, §2

Bacillus subtilis = test: Agar dilution MIC vs Bacillus subtilis (trypticase soy agar); details: first screened at 500 ppm; for MIC: read-out: Minimum inhibitory concentration, Bs
Protocol: as §1, §2

Streptococcus mutans [1] = test: Agar dilution MIC vs Streptococcus mutans (trypticase soy agar); details: first screened at 500 ppm; for MIC: read-out: Minimum inhibitory concentration, Sm
Protocol: as §1, §2

Aspergillus niger = test: Agar dilution MIC vs Aspergillus niger (trypticase soy agar); details: first screened at 500 ppm
Protocol: as §1, §2

Aspergillus fumigatus = test: Agar dilution MIC vs Aspergillus fumigatus (trypticase soy agar); details: first screened at 500 ppm
Protocol: as §1, §2

[2] = test system: Trichophyton mentagrophytes; test: Agar dilution MIC vs Trichophyton mentagrophytes (trypticase soy agar); details: first screened at 500 ppm
Protocol: as §1, §2

Candida pelliculosa = test: Agar dilution MIC vs Candida pelliculosa (trypticase soy agar); details: first screened at 500 ppm
Protocol: as §1, §2

[3] = test system: Streptococcus mutans (ATCC 10449); test: MIC and MBC vs Streptococcus mutans, Todd Hewitt broth, standard dilution; details: for MBC: read-out: MBC (minimum bactericidal concentration)
Protocol: In another procedure, the minimum inhibitory concentration (MIC) and minimum bactericidal concentration (MBC) were determined in ppm for various compounds of the invention against the bacteria, Streptococcus mutans (ATCC 10449). The testing was performed using Todd Hewitt broth and standard dilution techniques.

Streptococcus mutans [4] = test: Acid inhibition in Streptococcus mutans (Trypticase-yeast medium with sucrose, NaOH titration); details: S. mutans, 48 hours at 37° C.; for minimal effective concentration: Streptococcus mutans, 48 h, read-out: Acid Inhibition (minimum concentration which prevented acid formation)
Protocol: In still another operation, the acid inhibiting property of these compounds was tested against the known acid producing organism, Streptococcus mutans. Test tubes containing Trypticase-yeast medium with sucrose were inoculated with S. mutans and incubated for 48 hours at 37° C. The tubes were then titrated with 0.1 N sodium hydroxide.

[5] = Streptococcus mutans ATCC 10449, Todd Hewitt broth, monohydrate
[6] = Streptococcus mutans ATCC 10449, Todd Hewitt broth
[7] = Streptococcus mutans, ATCC10449, Streptococcus mutans ATCC 10449, Todd Hewitt broth
[8] = Streptococcus mutans, ATCC10449, Streptococcus mutans ATCC 10449, Todd Hewitt broth, read-out: MIC

COC(=O)c1ccc2c(c1)[I+]c1cc(C(=O)O)ccc1O2 [3(b), 3-carboxy-7-(methoxycarbonyl)-phenoxiodinin-5-ium bromide monohydrate]
Minimum inhibitory concentration, Sa (Staphylococcus aureus; monohydrate): 1.0 PPM | Minimum inhibitory concentration, St (Salmonella typhosa; monohydrate): 5 PPM | Minimum inhibitory concentration, Ec (Escherichia coli; monohydrate): 5 PPM | Minimum inhibitory concentration, Pm (Proteus mirabilis; monohydrate): 5 PPM | Minimum inhibitory concentration, Bs (Bacillus subtilis; monohydrate): 0.5 PPM | Minimum inhibitory concentration, Sm (Streptococcus mutans [1]; monohydrate): 10 PPM | Minimum inhibitory concentration, An (Aspergillus niger): 500 PPM | Minimum inhibitory concentration, Af (Aspergillus fumigatus; monohydrate): 100 PPM | Minimum inhibitory concentration, Tm ([2]; monohydrate): 100 PPM | Minimum inhibitory concentration, Cp (Candida pelliculosa): 500 PPM | MBC (minimum bactericidal concentration) [3, 5]: 1.0 ppm | MIC [3, 5]: 2.0 ppm | Acid Inhibition (minimum concentration which prevented acid formation) (Streptococcus mutans [4]): 1.0 ppm

COC(=O)c1ccc2c(c1)[I+]c1cc(C(=O)O)ccc1O2 [3(c)]
Minimum inhibitory concentration, Sa (Staphylococcus aureus): 1.0 PPM | Minimum inhibitory concentration, St (Salmonella typhosa): 5 PPM | Minimum inhibitory concentration, Ec (Escherichia coli): 5 PPM | Minimum inhibitory concentration, Pm (Proteus mirabilis): 5 PPM | Minimum inhibitory concentration, Bs (Bacillus subtilis): 0.5 PPM | Minimum inhibitory concentration, Sm (Streptococcus mutans [1]): 500 PPM | Minimum inhibitory concentration, An (Aspergillus niger): 500 PPM | Minimum inhibitory concentration, Af (Aspergillus fumigatus): 100 PPM | Minimum inhibitory concentration, Tm [2]: 100 PPM | Minimum inhibitory concentration, Cp (Candida pelliculosa): 500 PPM | MBC (minimum bactericidal concentration) [3, 6]: 2.0 ppm | MIC [3, 6]: 1.0 ppm | Acid Inhibition (minimum concentration which prevented acid formation) (Streptococcus mutans [4]): 1.0 ppm

CN1CCN(S(=O)(=O)c2ccc3c(c2)[I+]c2cc(S(=O)(=O)N4CCN(C)CC4)ccc2O3)CC1 [4(a), 3,7-bis((4-Methyl-1-piperazinyl)sulfonyl)phenoxiodinin-5-ium bromide, hydrobromide]
MIC (Staphylococcus aureus): 50 µg/mL | MIC (Salmonella typhosa): 500 µg/mL | MIC (Escherichia coli): 500 µg/mL | MIC (Bacillus subtilis): 100 µg/mL | MBC [3, 7]: ≥ 63 µg/mL | MIC [3, 8]: ≥ 63 µg/mL

O=C(O)c1ccc2c(c1)[I+]c1cc(C(=O)O)ccc1O2 [6(a)]
MIC (Staphylococcus aureus): 1 µg/mL | MIC (Salmonella typhosa): 10 µg/mL | MIC (Escherichia coli): 5 µg/mL | MIC (Proteus mirabilis; read-out: Minimum inhibitory concentration, Pm): 50 µg/mL | MIC (Bacillus subtilis): 0.5 µg/mL | MIC (Streptococcus mutans [1]): 500 µg/mL | MBC [3, 7]: 3.9 µg/mL | MIC [3, 8]: 3.9 µg/mL | minimal effective concentration (Streptococcus mutans [4]): 3.9 µg/mL

CNS(=O)(=O)c1ccc2c(c1)[I+]c1cc(S(=O)(=O)NC)ccc1O2 [7(a), 3,7-Bis(methylaminosulfonyl)phenoxiodinin-5-ium bromide hemihydrate]
MIC (Staphylococcus aureus): 500 µg/mL

CNS(=O)(=O)c1ccc2c(c1)[I+]c1cc(S(=O)(=O)NC)ccc1O2 [7(b), 3,7-Bis(methylaminosulfonyl)phenoxiodinin-5-ium chloride]
MIC (Salmonella typhosa): 500 µg/mL | MIC (Escherichia coli): 500 µg/mL | MIC (Streptococcus mutans [1]): 500 µg/mL | MIC (Aspergillus niger; read-out: Minimum inhibitory concentration, An): 500 µg/mL

O=S(=O)(c1ccc2c(c1)[I+]c1cc(S(=O)(=O)N3CCOCC3)ccc1O2)N1CCOCC1 [8(a), 3,7-Bis(4-morpholinylsulfonyl)phenoxiodinin-5-ium sulfate hydrate]
MBC [3, 7]: > 125 µg/mL | MIC [3, 8]: 62.5 µg/mL | minimal effective concentration (Streptococcus mutans [4]): 8 µg/mL

CN(C)S(=O)(=O)c1ccc2c(c1)[I+]c1cc(S(=O)(=O)N(C)C)ccc1O2 [9(a), 3,7-Bis(dimethylaminosulfonyl)phenoxiodinin-5-ium bromide]
MIC (Staphylococcus aureus): 500 µg/mL | MIC (Bacillus subtilis): 500 µg/mL | MBC [3, 7]: > 125 µg/mL | MIC [3, 8]: > 125 µg/mL | Acid Inhibition (minimum concentration which prevented acid formation) (Streptococcus mutans [4]): 0.2 ppm

CN(C)S(=O)(=O)c1ccc2c(c1)[I+]c1cc(S(=O)(=O)N(C)C)ccc1O2 [9(b), 3,7-Bis(dimethylaminosulfonyl)phenoxidinin-5-ium chloride]
Minimum inhibitory concentration, Sa (Staphylococcus aureus): 500 PPM | Minimum inhibitory concentration, Bs (Bacillus subtilis): 500 PPM | MBC (minimum bactericidal concentration) [3, 6]: > 125 ppm | MIC [3, 6]: > 125 ppm | Acid Inhibition (minimum concentration which prevented acid formation) (Streptococcus mutans [4]): 0.03 ppm
